Source: the NIST ThermoML archive (doi:10.1021/acs.jced.7b00971)

Tests used:
[1] = 101 kPa, Liquid, Capillary tube (Ostwald / Ubbelohde) method
[2] = xn = mol fraction of the nth substance listed; settings: 101 kPa, Liquid, Capillary tube (Ostwald / Ubbelohde) method

Cc1ccccc1C [1,2-dimethylbenzene]
[1]
Settings	viscosity [mPa·s]
303.15 K	0.71
308.15 K	0.666
313.15 K	0.628
318.15 K	0.591
323.15 K	0.56

Cc1ccccc1C [1,2-dimethylbenzene] + CO
viscosity [mPa·s], [2]
Settings	x2 = 0	x2 = 0.1007	x2 = 0.2013	x2 = 0.2961	x2 = 0.403	x2 = 0.5003	x2 = 0.601	x2 = 0.7025	x2 = 0.8006	x2 = 0.9013
303.15 K	0.71	0.684	0.674	0.671	0.666	0.663	0.655	0.638	0.61	0.567
308.15 K	0.666	0.641	0.631	0.626	0.621	0.617	0.607	0.595	0.567	0.53
313.15 K	0.628	0.603	0.591	0.587	0.582	0.577	0.569	0.554	0.531	0.495
318.15 K	0.591	0.566	0.555	0.55	0.543	0.538	0.531	0.516	0.494	0.462
323.15 K	0.56	0.535	0.523	0.517	0.511	0.506	0.496	0.484	0.462	0.434

Cc1cccc(C)c1 [1,3-dimethylbenzene]
[1]
Settings	viscosity [mPa·s]
303.15 K	0.554
308.15 K	0.524
313.15 K	0.498
318.15 K	0.472
323.15 K	0.452

Cc1cccc(C)c1 [1,3-dimethylbenzene] + CO
viscosity [mPa·s], [2]
Settings	x2 = 0	x2 = 0.1008	x2 = 0.2003	x2 = 0.2999	x2 = 0.4	x2 = 0.4997	x2 = 0.6003	x2 = 0.7001	x2 = 0.8001	x2 = 0.9012
303.15 K	0.554	0.539	0.542	0.548	0.553	0.56	0.566	0.57	0.565	0.546
308.15 K	0.524	0.51	0.51	0.514	0.519	0.526	0.53	0.532	0.526	0.509
313.15 K	0.498	0.483	0.483	0.485	0.488	0.493	0.496	0.497	0.492	0.477
318.15 K	0.472	0.456	0.456	0.457	0.46	0.462	0.465	0.466	0.46	0.445
323.15 K	0.452	0.435	0.433	0.433	0.434	0.437	0.437	0.437	0.432	0.419
